Measurements published in US10064814B2, “Use of spider venoms for skin whitening/depigmenting and composition comprising spider venoms molecules or synthetic analogs” (priority 2012, dated 2018).
“Also recorded” adds a separate entry of the source. Where two headings read alike, the source gives them in different places.

Columns and labels:
[1] = test system: B16F10 cells; assay: Measurement of melanin content in B16F10 melanoma cells (melanogenesis assay); assay type: cell-based, murine; settings: for IC50: read-out: IC50 melanogenesis (melanin released in the medium)
Experimental: (§1) B16F10 were obtained from the American Type Culture Collection (ATCC CRL-6475, Manassas, Va., USA). Cells were cultured in Dulbecco's Modified Eagle Medium (DMEM) supplemented by 10% heat-inactivated foetal bovine serum (FBS, LONZA ltd., Basel, Switzerland) and penicillin/streptomycin (50 μg/ml) in a humidified atmosphere containing 5% CO2 at 37° C.
Determination of the extracellular melanin is considered as an index of melanogenesis. B16F10 cells were cultured in 24-well plate (5.10^4 cells/well) in a phenol red free medium and stimulated with 100 nM of α-MSH. […] To quantify the amount of melanin released in the medium, the absorbance of 200 μl of supernatant was read at 405 nm. The values were normalized by the measurement of total protein level present in each well.
Cells were washed with PBS1X and dissolved in 200 μl of NaOH 1N for 1 h at 60° C. The lysate was then centrifuged and the protein content determined by the Folin Lowry method, using the DC protein Assay kit from BIO-RAD (Marnes-la-Coquette, France). The absorbance is read at […].
B16F10 are murine melanoma cells, a cell line able to produce melanin and considered as an accurate model to assess melanogenesis inhibition. Cells were seeded at 5.10^4 cells/well in a P24 well plate and stimulated by 100 nM of α-MSH, the melanin-stimulating hormone. […] 48 h later, according to […] & EBERLE (Analytical Biochemistry, vol. 159(1), p: 191-7, 1986), the amount of melanin released in the medium was spectrophotometrically measured at 405 nm and normalised to the protein content.

[2] = test system: TRP1; assay: Western blot analysis of TRP1 expression; assay type: cell-based, murine; settings: α-MSH stimulated B16F10 cells, FIG. 16
Experimental: Cells were seeded at 1.10^6 cells/dish and cultivated in n-dish as previously described. After trypsination, the pelled were homogenized in a solution containing Sodium Dodecyl Sulphate (SDS) and were boiled 5 min at 96° C. to denature the proteins. Protein extracts were separated via a 10% SDS-PAGE for 1 h at 200 V and transferred onto a polyvinylidene difluoride membrane (GE healthcare Europe, Vélizy-villacoublay, France). The membranes were blocked overnight with 5% non-fat skim milk in a Tris-buffered saline solution containing 0.1% Tween. Membranes were incubated for 1 h at 37° C. with specific antibody against tyrosinase, TRP1 or MITF (C-19; G-17; N-15, 1:200 for Tyrosinase and TRP1 and 1:100 for MITF, Santa Cruz, Heidelberg, Germany) and actin as a control (C-11, 1:200, Santa Cruz). Membranes were incubated with secondary antibody coupled to horseradish peroxidase (HRP) for 2 h at room temperature (anti-goat 1:2500 for tyrosinase, TRP1 and MITF (ab 97120, Abcam, Paris, France) and anti-rabbit 1:2500 for actin (NA 934V, GE Healthcare)). […] Pre-stained protein markers were used for molecular weight.
To explore the mechanism of action of Argiotoxin in melanogenesis processes, we assess its ability to regulate the protein expression of two enzymes, the tyrosinase and TRP1 which is implicated in the biosynthesis of black/brown pigments specifically. […]

[3] = target: mushroom tyrosinase (DOPA oxidase activity) (Agaricus bisporus, UniProt C7FF04); assay: DOPA oxidase inhibiting activity by spectrophotometry (mushroom tyrosinase assay); assay type: biochemical; settings: FIG. 12
Chain of mushroom tyrosinase (DOPA oxidase activity) (C7FF04 1-392): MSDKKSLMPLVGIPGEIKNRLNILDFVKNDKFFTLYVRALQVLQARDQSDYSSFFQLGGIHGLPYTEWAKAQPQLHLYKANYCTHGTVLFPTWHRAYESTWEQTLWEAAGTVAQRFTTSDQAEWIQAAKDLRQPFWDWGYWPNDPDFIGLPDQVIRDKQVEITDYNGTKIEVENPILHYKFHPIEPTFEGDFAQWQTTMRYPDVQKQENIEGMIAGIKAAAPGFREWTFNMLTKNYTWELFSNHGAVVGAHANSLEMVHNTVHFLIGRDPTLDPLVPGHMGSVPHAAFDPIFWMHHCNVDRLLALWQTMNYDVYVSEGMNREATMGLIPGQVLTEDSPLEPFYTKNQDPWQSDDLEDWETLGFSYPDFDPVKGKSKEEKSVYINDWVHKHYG
Chain of mushroom tyrosinase (DOPA oxidase activity) (G1K3P4 1-150 partner): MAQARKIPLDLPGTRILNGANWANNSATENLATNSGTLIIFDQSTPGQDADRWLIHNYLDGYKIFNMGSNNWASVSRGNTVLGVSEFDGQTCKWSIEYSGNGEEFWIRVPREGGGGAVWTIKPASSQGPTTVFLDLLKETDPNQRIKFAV
Experimental: (§2) Mushroom (Agaricus bisporus) tyrosinase (SIGMA-ALDRICH, T3824) has both DHICA oxidase and DOPA oxidase activity ([…] et al, Pigment Cell Res., vol. 12(2), p: 118-25, 1999).
The effect of different spider venoms on the DOPA oxidase activity was measured spectrophotometrically. The DOPA oxidase activity was determined using L-DOPA as substrate at 0.2 mM. The amount of DOPA chrome (red pigment) formed was measured against blank at 475 nm. The percentage of DOPA oxidase inhibition was obtained from: Inhibition percentage=[…]
With: • A: Absorbance at 475 nm of the reaction medium+inhibitor sample solution with enzyme • B: Absorbance at 475 nm of the reaction medium+inhibitor sample solution without enzyme (blank) • C: Absorbance at 475 nm of the reaction medium enzyme without inhibitor sample solution • D: Absorbance at 475 nm of the reaction medium without both enzyme and inhibitor sample solution […]
For the DOPA activity assay: 500 μL of the L-DOPA solution at 0.4 mM is mixed with different volumes according to the different natural inhibitors at 10 mg/mL, and 5 μL of the mushroom tyrosinase solution (added last to initiate the enzymatic reaction and must be kept in ice). […] The absorbance is measured at 475 nm every minute for 15 min using a UV-VIS spectrophotometer BIOMATE 5®. […]

[4] = test system: B16F10 cells; assay: LDH cell-based assay (cytotoxicity); design: species or system murine; settings: 42.1 μM
[5] = test system: mushroom tyrosinase (DHICA oxidase activity); assay: DHICA oxidase-inhibiting activity by MBTH assay; assay type: biochemical, Agaricus bisporus; settings: DHICA substrate 0.25 mM
Experimental: as §2
DHICA is used as substrate at 0.25 mM. MBTH was obtained from Alfa Aesar and DHICA was prepared according to […] & ITO, (Anal. Biochem., vol. 170(2), p: 335-40, 1988). Here, the MBTH method was used. This method consists to visualize the production of hydrazone-quinone adduct by spectrophotometry. The principle is that MBTH captures the indole-quinone which was generated by the oxidation of dihydroxyindole compounds. DHICA is converted to indole-5,6-quinone-2-carboxylic acid by the DHICA oxidase activity of mushroom tyrosinase, the indole product is trapped by MBTH and the complex formation can be detected at 492 nm (OLIVARES et al, Biochem. J., vol. 354, p: 131-139, 2001). • c) The DHICA oxidase inhibiting activity using mushroom tyrosinase was assayed in vitro. The procedure is the same as described by WINDER & HARRIS (Eur. J. Biochem., vol. 198(2), p: 317-26, 1991) for DOPA oxidase with minor modifications. Purification of the fractions
The experimental conditions are the same as previously mentioned. DHICA was used as substrate at 0.25 mM.

[6] = test system: B16F10 cells; assay: Cell viability assay (MTT); assay type: cell-based, murine; settings: 42.1 μM
Experimental: as §1
The evaluation of B16F10 cells survival relies on the reduction of the tetrazolium ring of water soluble MTT (3-[4,5-dimethylthiazol-2-yl]-2,5-diphenyltetrazolium bromide; Sigma Aldrich) into insoluble purple formazan crystals by the mitochondrial succinate dehydrogenase enzyme. The production of formazan directly reflects the number of living […] cells. B16F10 cells were seeded at 25000 per well in a 96-well plate and incubated in standard culture condition. […] Then, the supernatant was removed and replace by 50 μl of 0.5 mg/ml of MTT solution. The cells were exposed to MTT for 2 h. Finally, each well was washed by PBS1X and the crystals contained in wells are solubilized by adding 100 μl of DMSO. After briefly shaked the plate, the absorbance is measured at 600 nm.

[7] = test system: tyrosinase; assay type: cell-based, murine; settings: α-MSH stimulated B16F10 cells, FIG. 16
Experimental: Western blot analyses were performed on B16F10 cells treated as previously described.

O=c1cc(CO)occ1O [Kojic acid, Kojic Acid, reference compound]
IC50 ([1]; Mus musculus, B16-F10, B16F10, 100 nM α-MSH, 48 h treatment): ~5 µM
expression of TRP1 protein [2]: faintly decreases

O=C(O)Cc1ccc(O)cc1O [2,4-DHPAA]
IC50 ([1]; B16F10, 100 nM α-MSH, 48 h treatment): ~5 µM
IC50 [3]: ~6000 µM
type of inhibition of DOPA oxidase activity ([3]; suggested from dose-response): competitive inhibitor

N=C(N)NCCC[C@H](N)C(=O)NCCCNCCCNCCCCCNC(=O)[C@H](CC(N)=O)NC(=O)Cc1ccc(O)cc1O [Argiotoxin, Argiotoxin-636]
cytotoxicity (LDH) [4]: neither cell death nor cytotoxicity
fold higher activity on the cellular assay compared with DHPA ([1]; B16F10 melanogenesis): 100 fold
IC50 ([1]; Mus musculus, B16-F10, 48 h): ~0.01 µM
inhibition of DHICA oxidase activity [5]: dose-dependent inhibition is visible up to 100 μM; also recorded: dose-dependent manner up to 75 μM
expression of TRP1 protein [2]: significant inhibition
cell death (MTT) [6]: neither cell death nor cytotoxicity
expression of tyrosinase protein [7]: significant inhibition
